Laboratory results from EP0423240B1, “MODULATION OF VIRUS-HOST CELL INTERACTIONS USING CYCLIC OLIGOSACCHARIDES” (THE TRUSTEES OF THE UNIVERSITY OF PENNSYLVANIA, priority 1988, dated 1990).

What was measured:
[1] = tested on: HIV-1; test: HIV-1 induced syncytia assay, IIIb infected H9 cells cocultured with Supt-1 target cells; format: cell-based; set-up: key to number of syncytia formed: 4 being multiple syncytia widely distributed; 0 indicating no syncytia observed; s=small; m=medium; L=large syncytia; settings: for number of syncytia formed: HIV-1, number and size of syncytia
Description: (§1) For the assay of HIV-1 fusion, Supt T1 cells were used as target cells. They fuse rapidly when cocultured with HIV-1 (H9/IIIb) producing cell lines. For the assay of HIV-2 mediated cell fusion, H9 cells were used as target cells. They fuse rapidly when cocultured with HIV-2 (CEMROD-2) producing cell lines. HIV infected cells were plated in 96 well plates (10⁴ cells/well in RPMI 1640 + 10% FCS) and incubated with or without dilution of compounds for 30 minutes at 37°C. Target cells are then added 5 x 10⁵/well and the number of syncytia are qualitatively determined after the incubation periods described in the text.
In a series of additional experiments, analysis of HIV-1 induced syncytia was performed by coculturing H9 cells infected with the IIIb isolate with uninfected Supt-1 (a human CD4+ T cell line) cells as targets. […]

[2] = tested on: HTLV-IIIb cell free virus; test: Reverse transcriptase assay of HIV infectivity, cell free virus on target cells, 10 day incubation; format: cell-based, HIV-1
Description: Figure 2 illustrates the effects of cyclodextrin and cyclodextrin derivatives on HIV infectivity as determined by reverse transcriptase activity. Samples assayed are (A) untreated control cells, (B) β-cyclodextrin unsubstituted ring, (C) partially sulfated β-cyclodextrin ring, (D) propylated β-cyclodextrin ring, (E) sulfated β-cyclodextrin ring, and (F) methylated β-cyclodextrin ring. Numbers indicate 1/2 dilutions of test compounds with 1 = 2.5 mM concentration of compound.
Virus infected cells were pelleted by centrifugation and 50 µl of culture suprenatant was collected from each well for assay. Culture supernatant (25 µl) was plated in 96 well round bottomed plates and 50 µl of transcriptase cocktail was added to each well. Cocktail is 50 mM Tris-HC1, pH 8.0, 20 mM DTT, 0.6 mM MnC1₂, 60 mM NaC1, 0.05% NP-40, 5 µg/ml dt (oligodeoxythymidilic acid), 10 µg/ml poly A (polyriboadenylic acid), 10 µM dTTP, 1 Ci/mm ³²P dTTP. Plates were then incubated for 60 minutes at 37°C. After incubation samples were spotted onto Whatman DEAE-81 paper, washed and analyzed by counting or direct autoradiography.
The ability of cyclodextrins to inhibit HIV infection was assessed in vitro utilizing reverse transcriptase assays as described Section 6.1.2, supra. HTLV-IIIb cell free virus stocks were inoculated onto target cells in the presence or absence of the synthetic compounds.

[3] = tested on: HTLV III WMJ; test: Fusion inhibition (syncytia) assay, Sup-T1 cells with WMJ infected H9 cells; format: cell-based, HIV-1; set-up: key to Degree of Syncytia Formation: 4=Full; 0=None; S=Small; M=Medium; L=Large; settings: for Degree of Syncytia Formation: degree and size of syncytia
Description: (§2) The fusion inhibition (syncytia) assay was performed according to published procedures (Dalgleish et al., Nature 312:763, (1984) and Sodroski et al., Nature 322: 470, (1986)). Sup-T1 cells are favored target cells for their rapid degree of cell fusion when co-cultured with HIV-1 producing cell lines. Cell culture is performed according to the method of Dalgleish et al. (Nature 312:763, (1984)). Sup-T1 cells are plated in 96 well plates (10⁵ cells/well in RPMI 1640 + 10% FCS) and incubated with or without dilutions of beta-cyclodextrin tetradecasulfate (β-CD-TDS or β-CD-14S) at 37°C. HTLV-III B (HIV-1) or WMJ infected H9 cells are then added 5x10⁴/well and the number of multinucleated giant cells per 16 X field counted with a Zeiss inverted field phase contrast microscope after 18 hours. Syncytia are easily identified and inhibition of syncytia by different dilutions of β-CD-TDS can be compared with to β-CD-TDS free preparations. It will be apparent to those skilled in the art, that the formation of syncytia between cells susceptible of infection by HIV-1 and cells expressing HIV-1 envelope glycoproteins represents the same molecular phenomena involved in infection by HIV-1, but is far less hazardous and may be employed to study the mechanisms of infection and the effects of modulating factors on HIB-1 intracellular infection mechanisms, without fear of exposure to the virus itself.
(§3) For screening of different dilutions, 10-fold dilutions of a 150 micromolar solution of β-CD-TDS were prepared and directly added to syncytia assays as described above.
as §1
(§4) In a series of preliminary experiments, a syncytia assay induced by HIV-1 fusion of Sup-T1 cells was performed as described in Section 6.1.1, supra.

[4] = tested on: HIV-2; test: HIV-2 induced syncytia assay, ROD-2 infected cells cocultured with H9 target cells; format: cell-based; set-up: key to number of syncytia formed: 4 being multiple syncytia widely distributed; 0 indicating no syncytia observed; s=small; m=medium; L=large syncytia; settings: for number of syncytia formed: HIV-2, number and size of syncytia
Description: as §1, with “text. […]” for “text.”

[5] = tested on: HTLV III -B (HIV-1 IIIB); test: Fusion inhibition (syncytia) assay, Sup-T1 cells with HTLV-III B infected H9 cells; format: cell-based; set-up: key: 4=Full; 0=None; S=Small; M=Medium; L=Large; settings: degree and size of syncytia
Description: as §2, §3, §1, §4

beta-cyclodextrin tetradecasulfate [Beta-CD-14S]
number of syncytia formed ([1]; 1.3 mM): 0 | number of syncytia formed ([1]; 2.5 mM): 0 | number of syncytia formed ([1]; .01 mM): 4 L | number of syncytia formed ([1]; .02 mM): 4 L | number of syncytia formed ([1]; .04 mM): 3 L | number of syncytia formed ([1]; .08 mM): 2m | number of syncytia formed ([1]; .16 mM): 1 s | number of syncytia formed ([1]; .32 mM): 0 | number of syncytia formed ([1]; .63 mM): 0 | inhibiting syncytia formation of HIV-1 ([1]; result in words): extremely high antisyncytia activity | inhibition of viral infectivity (reverse transcriptase activity) ([2]; 1/2 dilutions from 2.5 mM, result in words): extremely effective | concentrations at which some reverse transcriptase activity was apparent ([2]; dilution 4): ≤ 320 µM | concentrations at which reverse transcriptase activity was dramatically inhibited ([2]; dilution 6): ≥ 80 µM | Degree of Syncytia Formation ([3]; 0.15 micromolar β-CD-TDS): 4 L | inhibition of syncytia formation ([3]; 0.15 micromolar, text summary of Table 1 (both strains)): no inhibition of syncytia formation was observed | Degree of Syncytia Formation ([3]; 1.50 micromolar β-CD-TDS): 3 M | Degree of Syncytia Formation ([3]; 15.0 micromolar β-CD-TDS): 1S | Degree of Syncytia Formation ([3]; 150 micromolar β-CD-TDS): 0 | Degree of Syncytia Formation ([3]; 1500 micromolar β-CD-TDS): 0 | inhibition of syncytia ([3]; between 1.5 micromolar and 1500 micromolar, text summary of Table 1 (both strains)): inhibition of syncytia was observed | number of syncytia formed ([4]; 1.3 mM): 0 | number of syncytia formed ([4]; 2.5 mM): 0 | number of syncytia formed ([4]; .01 mM): 4 L | number of syncytia formed ([4]; .02 mM): 4 L | number of syncytia formed ([4]; .04 mM): 4 L | number of syncytia formed ([4]; .08 mM): 3 L | number of syncytia formed ([4]; .16 mM): 2m | number of syncytia formed ([4]; .32 mM): 1 s | number of syncytia formed ([4]; .63 mM): 0 | inhibition of syncytia formation mediated by ROD-2 ([4]; result in words): inhibited syncytia formation | Degree of Syncytia Formation ([5]; 0.15 micromolar β-CD-TDS): 4 L | Degree of Syncytia Formation ([5]; 1.50 micromolar β-CD-TDS): 4 L | Degree of Syncytia Formation ([5]; 15.0 micromolar β-CD-TDS): 4 L | Degree of Syncytia Formation ([5]; 150 micromolar β-CD-TDS): 2 M | Degree of Syncytia Formation ([5]; 1500 micromolar β-CD-TDS): 0
